In patent US7695971B2, “Use of non-absorbable fat in determining dietary fat absorption” (Children's Hospital Medical Center, priority 2003, dated 2010):
One block for each molecule: values may come before it.

How the values were obtained:
[1] = Fat absorption by sucrose behenate marker method, rats (Example 2)
Method: (§1) These two diets further have the following composition by weight: about 16% fat, 45% non-fat dry milk, and 39% sucrose, providing 30:15:55 fat:protein:carbohydrate energy %. Non-fat dry milk comprised 60% carbohydrate and 40% protein by weight. The fat composition (% by weight) is given for each diet as listed below. […] Aliquots of approximately 10 microliters of each fat blend are set aside and later analyzed for fatty acid analysis. The fat blends are added to non-fat dry milk and sucrose and mixed with an electric mixer for 5 minutes. The prepared diets are placed in a capped glass bottle and stored at 4° C. until used.
(§2) The feeding and fecal collection regimen for rodents includes two days of test diet and three days of fecal collection. Prior to the study, the animals eat commercial chow ad libitum. Test diets, also fed ad libitum, replace chow on days 0 and 1, and chow is returned to the animals on day 2. Fecal collections are made on days 1, 2, and 3. The feeding and feces collection regimen is illustrated in the following table A:
(§3) In general sample sizes of 10-20 milligrams provide a 5 to 10-fold excess of behenate in terms of the sensitivity of the gas chromatograph. The weighed fecal sample is ground into small particles with a spatula and placed in a 20 mL vial for saponification, methylation, and extraction. The method for saponification and methylation of fatty acids for gas chromatographic analysis can be that reported by Mecalfe (Metcalfe, L D et al. (1966). Anal. Chem. 38: 514-515). Four mL of 0.5N methanolic sodium hydroxide are added to the vial, which is then heated in a water bath at ˜80° C. for 5 mins. After a brief cooling period, 3 mL of BF3 in methanol (14% borontrifluoride and 86% methanol) are added to methylate the sample. After another five minutes of heating in the waterbath, the sample vial is allowed to cool to allow handling. Two mL of a saturated solution of sodium chloride and 10 mL of hexane are added to the vial. The samples are then mixed with a vortex mixer for one minute. Centrifugation can be used (2500 rpm at 1 min) to expedite the process of separation into two layers. The hexane fraction is transferred by pipette into a 20 mL vial that contains ˜10 mg of sodium sulfate to dry the sample. The hexane solution is removed for gas chromatograph analysis. An injection volume of 1 μL of the 10 mL of hexane is analyzed.
Samples are analyzed with a gas chromatograph (GC) such as a Shimadzu GC-17A equipped with autosampler and autoinjector. Analysis of fatty acid methyl esters is then based on areas calculated with Shimadzu Class VP 4.3 software. […]
The absorption of fatty acids is calculated with formula II: […]

[2] = Fat absorption by sucrose behenate marker method, mice (Example 1)
Method: as §1, §2, §3
Samples are analyzed with a gas chromatograph (GC) such as a Shimadzu GC-17A equipped with autosampler and autoinjector. Analysis of fatty acid methyl esters is then based on areas calculated with Shimadzu Class VP 4.3 software. An example of an appropriate column is one that can be obtained from J&W Scientific, DB-23 (123-2332): 30 m (length), I.D. (mm) 0.32 widebore, film thickness of […], although any suitable column can be substituted. Fatty acid identification is made by the use of comparison of retention times with those of authenticated standards. The conditions for the GC analysis in the present example are: Column temperature ramping by holding at 120° C. for one minute followed by an increase of 5° C./min from 120-240° C. The temperature of the injector and flame ionization detector is 250° C. A split (8:1) injection mode is used. The carrier gas is helium with a column flow rate of 2.5 mL/min. Under these conditions, the retention time of methyl behenate is 18.7 min.
The absorption of fatty acids is calculated with formula II:
[formula] • where Fd=sum of the masses of all dietary fatty acids (or that of an individual fatty acid) other than behenic acid, • Bd=mass of dietary behenic acid, • Ff=sum of the mass of all fecal fatty acids (or that of an individual fatty acid) other than behenic acid, and • Bf=mass of fecal behenic acid.

Compound: CCCCCCCCCCCCCCCCCCCCCC(=O)O [behenic acid, reference compound]
behenic acid in feces, of the total fatty acids ([2]; mice fed Safflower Oil Diet): 33.5-66.4%
behenic acid in feces, of the fatty acids ([2]; mice fed Safflower Oil and Olestra Diet): 12.5-19.3%

Compound: CCCCC/C=C\C/C=C\CCCCCCCC(=O)O [linoleic acid]
absorption of individual fatty acid from safflower oil (in words) ([1]; rat, in vivo): essentially complete
Percent in Feces (Mean ± SEM) ([2]; male, C57B1/6, mouse, in vivo): 27.7 ± .6%
absorption of individual fatty acid from safflower oil (in words) ([2]; mouse, in vivo): nearly complete

Compound: CCCCCCCC/C=C\CCCCCCCC(=O)O [oleic]
absorption of individual fatty acid from safflower oil ([1]; rats, fecal collections of days 2 and 3): 90.9±0.5%
Percent in Feces (Mean ± SEM) ([2]; fecal samples from mice ingesting Safflower Oil and Olestra Diet): 24.7 ± 01.0%
absorption of individual fatty acid from safflower oil (in words) ([2]; mice, Safflower Oil Diet): nearly complete

Next, values leading:

absorption of individual fatty acid from safflower oil ([1]; rat, in vivo): 90.1±0.3%
Percent in Feces (Mean ± SEM) ([2]; male, C57B1/6, mouse, in vivo): 18.3 ± 0.5%
Compound: CCCCCCCCCCCCCCCC(=O)O [Palmitic acid]

absorption of individual fatty acid from safflower oil ([1]; rat, in vivo): 75.9±0.3%
Percent in Feces (Mean ± SEM) ([2]; male, C57B1/6, mouse, in vivo): 5.28 ± 0.3%
absorption of individual fatty acid ([2]; male, C57B1/6, mouse, in vivo): 77.3±2.1%
Compound: CCCCCCCCCCCCCCCCCC(=O)O [Stearic acid]
